Results taken from patent US10111831B2, “Chewable vehicle for mouth absorption” (TECHNOLOGIES KHLOROS INC., priority 2011, dated 2018).

What was measured:
[1] = Liberation of riboflavin from functional gel, passive vs artificial mastication; format: physicochemical; conditions: Khlôros functional gel, 0.9% riboflavin, 10 ml H2O/gel, after 60 seconds, detection at 445 nm
Description: • Material: • Khlôros functional gel (see examples I and II); • 0.9% Riboflavin; • Reactional media: 10 ml of H2O/gel; • Passive liberation of active ingredient (Riboflavin): no treatment on the gel; • Artificial mastication (active liberation): mimic the action of mastication →compression and soft shearing;
Detection of the liberation of riboflavin and conversion in mM by the spectroscopic evaluation at 445 nm.

[2] = Release of yohimbine from chewing gum masticated in water or artificial saliva; format: physicochemical; conditions: gum with Corynanthe yohimbe bark extract (8% yohimbine), artificially masticated 120 seconds in 10 ml, chromatography
Description: • Chewing gums are prepared following example xx, containing a bark extract of Corynanthe yohimbe (containing 8% of yohimbine); • Gums are artificially masticated for 120 seconds in 10 ml of water or artificial saliva; • The quantity of released yohimbine is analysed by chromatography.

Row | liberation of riboflavin after artificial mastication compared to passive liberation [1] [times] | quantity of yohimbine released, masticated in saliva versus water [2] | Compound
1 | 23 |  | Cc1cc2nc3c(=O)[nH]c(=O)nc-3n(C[C@H](O)[C@H](O)[C@H](O)CO)c2cc1C [riboflavin, Riboflavin]
2 |  | more than 5 time | COC(=O)[C@@H]1[C@H]2C[C@H]3c4[nH]c5ccccc5c4CCN3C[C@@H]2CC[C@@H]1O [yohimbine]
